Entries after “also recorded” stand apart in the source; their conditions may differ.
Assays:
[1] = Oral bioavailability / pharmacokinetic study in ICR mice; assay type: in vivo
Experimental: To measure oral bioavailability of a test compound, blood samples were collected from male ICR mice (6 weeks old; 20-25 g) after oral (10 mg/kg) or intravenous (1 mg/kg) administrations of the test compound. The blood samples collected at the indicated periods were extracted with methanol containing 0.1% formic acid, and then 10 μL of each extracted sample were injected to UPLC-MSMS for quantitation.
Pharmacokinetic Study. The compound was administered as aqueous solutions in normal saline. Male ICR mice were purchased from BioLASCO Taiwan Co., Ltd. To measure oral bioavailability of test compounds (T1-11 and JMF3464), blood samples were collected from male ICR mice (6 weeks old; […]) after oral (10 mg/kg) or intravenous (1 mg/kg) administrations of test compounds. For T1-11, blood samples were collected at 2, 10, 30, 60, 120, 360 minutes after intravenous administration and at 15, 30, 45, 60, 120, 360 minutes after oral administration. For JMF3464, the blood samples were collected at 2, 10, 30, 60, 120, 240, 360, 480 minutes after intravenous administration and at 15, 30, 60, 90, 120, 240, 360, 480 minutes after oral administration. The blood samples were extracted by methanol with 0.1% formic acid, and then 10 μL of the extracted samples were injected to UPLC-MSMS to for quantitation.
The pharmacokinetic parameters were obtained using a pharmacokinetic program WinNonlin, fitting data to a noncompartmental model. […] The total plasma clearance (CL) was calculated as dose/AUCi.v.. The oral bioavailability (F) of the test compound by oral administration was calculated from the AUC0-∞ of the oral dose divided by the AUC0-∞ of the i.v. dose.

human A2AR = human A2AR (Homo sapiens, UniProt P29274); assay: A2AR radioligand binding assay (3H-CGS21680)
Chain of human A2AR (P29274 whole entry): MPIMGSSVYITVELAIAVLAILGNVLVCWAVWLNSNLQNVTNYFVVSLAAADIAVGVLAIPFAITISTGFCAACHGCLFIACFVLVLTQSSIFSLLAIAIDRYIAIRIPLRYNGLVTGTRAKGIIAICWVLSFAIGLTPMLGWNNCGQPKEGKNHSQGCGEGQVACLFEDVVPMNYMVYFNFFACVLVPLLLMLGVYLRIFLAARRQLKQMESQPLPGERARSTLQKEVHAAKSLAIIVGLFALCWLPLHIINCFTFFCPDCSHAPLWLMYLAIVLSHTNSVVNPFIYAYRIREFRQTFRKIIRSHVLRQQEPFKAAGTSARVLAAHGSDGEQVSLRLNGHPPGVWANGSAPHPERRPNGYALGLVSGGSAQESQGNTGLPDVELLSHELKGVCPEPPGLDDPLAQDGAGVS
Experimental: (§1) Binding of the indicated compounds to A2A adenosine receptor (A2AR) and an adenosine transporter (ENT1) was characterized using standard binding protocols.
(§2) Radioligand binding assays. Radioligand binding assays were performed by MDS Pharma Services Taiwan (Taipei, Taiwan) using standard binding protocols. For A2AR binding assays, membrane proteins collected from HEK293 cells overexpressing human A2AR were incubated in the reaction buffer [50 mM Tris-HCl (pH 7.4), 10 mM MgCl2, 1 mM EDTA, and 2 U/mL adenosine deaminase] containing ^3H-CGS21680 (50 nM) for 90 min at 25° C. Nonspecific binding was assessed in the presence of 50 μM adenosine-5′-N-ethylcarboxamide. […] Binding assays for adenosine transporters were conducted as described earlier. Membrane fractions collected from the cerebral cortex of Duncan Hartley-derived guinea pigs were incubated with ^3H-labeled 6-[(4-nitrobenzyl)thio]-9-β-D-ribofuranosylpurine (NBTI, 0.5 nM) for 30 min at 25° C. in the incubation buffer containing 50 mM Tris-HCl (pH 7.4). […] Reactions were terminated by filtration over GF/B glass fibers and washing with the reaction buffer.

[2] = molecular target: T1, adenosine transporter (ENT1) (Cavia porcellus, UniProt H0V4R7); assay: Adenosine transporter (ENT1) radioligand binding assay (3H-NBTI)
T1 sequence (H0V4R7 1-461): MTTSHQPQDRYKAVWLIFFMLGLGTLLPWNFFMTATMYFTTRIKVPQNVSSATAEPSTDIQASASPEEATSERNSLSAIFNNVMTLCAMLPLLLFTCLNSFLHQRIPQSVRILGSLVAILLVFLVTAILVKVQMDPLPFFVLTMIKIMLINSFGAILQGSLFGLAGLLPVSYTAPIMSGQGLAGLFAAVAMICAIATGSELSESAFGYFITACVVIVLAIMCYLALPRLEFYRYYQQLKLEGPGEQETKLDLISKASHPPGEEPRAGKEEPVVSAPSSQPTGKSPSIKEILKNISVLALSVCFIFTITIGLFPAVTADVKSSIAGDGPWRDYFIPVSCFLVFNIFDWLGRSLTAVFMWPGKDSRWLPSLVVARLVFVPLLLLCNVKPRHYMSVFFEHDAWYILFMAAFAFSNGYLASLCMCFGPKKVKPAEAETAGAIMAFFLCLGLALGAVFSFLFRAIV
Experimental: as §1, §2

[3] = tested on: mice treated with intermittent cold stress; assay: Intermittent cold stress model of fibromyalgia; assay type: in vivo
Experimental: FIGS. 10A-C show the analgesic effect of JMF3464 on a mouse model of fibromyalgia. […] Open arrows indicate the time mice received acid injection. Black arrows indicate the time mice received T1-11 (p.o.). […] The analgesic effect of JMF3464 is dose-dependent. The effective dose started from 100 μg/kg (i.p.).
Intermittent cold stress model. The fibromyalgia model was developed by Ueda's group, in which mice were treated with intermittent cold stress for 2 days (Nishiyori and Ueda, 2008 Mol Pain. 4:52). Mice treated with intermittent cold stress developed long-lasting (>2 weeks) mechanical and thermal hyperalgesia. Analgesic effects of JMF3464 (i.p. or p.o.) were tested in these mice 5 days after intermittent cold stress. Mechanical hyperalgesia was assayed by testing the withdrawal response of mouse hindpaws to 0.2-mN von Frey filament stimulation.

NSC34 cells = assay: TDP-43 mislocalization caused by AICAR (AMPK activation), immunostaining; assay type: cell-based; conditions: 30 μM, 1 h pretreatment then AICAR 1 mM for 24 hrs
Experimental: Cells were pretreated with JMF3464 (30 μM) for one hour, and then treated with AICAR (1 mM, Al) in the presence of JMF3464 for additional 24 hrs. TDP-43 (red) localization was analysed by immunostaining. The locations of nuclei were marked by Hochest (blue).
Cell culture and transfection. The motor neuron cell line (NSC34) was a generous gift from Dr. Neil Cashman (Brain Research Centre, The University of British Columbia, Canada), and cultured in a high-glucose Dulbecco's modified Eagle's medium (DMEM) containing 10% fetal calf serum (FCS), 2 mM L-glutamine, and 1% penicillin/streptomycin (Invitrogen GibcoBRL, Carlsbad, Calif., USA) at 37° C. under 5% CO2.

R6/2 mice = assay: Transgenic mouse model (R6/2) of Huntington's disease: rotarod and lifespan; assay type: in vivo
Experimental: FIGS. 3A-B show the effect of JMF3464 on motor deficits and lifespan. […] Rotarod performance (A) and lifespan (B) of these mice were assessed. * p<0.05. *** p<0.005.
As the A2AR and ENT1 are located in the striatum and have been implicated in striatal function, we hypothesized that chronic treatment with JMF3464 would modulate the progression of HD. We tested the effect of JMF3464 in a transgenic mouse model (R6/2) of HD in which A2AR agonists have beneficial effects.
Animals and drug administration. Male R6/2 mice (Mangiarini et al., 1996 Cell. 87:493-506) and littermate controls were originally obtained from Jackson Laboratories (Bar Harbor, Me., USA), and mated to female control mice (B6CBAFI/J). Offspring were identified by a polymerase chain reaction (PCR) genotyping technique of genomic DNA extracted from tail tissues using primers located in the transgene (5′-[…]-3′; SEQ ID NO: 1, and 5′-GGCTGAGGAAGCTGAGGAG-3′; SEQ ID NO: 2) to ensure that the number of CAG repeats remained approximately 150. […] Body weights of mice were recorded once daily. […]
Rotarod performance. Motor coordination was assessed using a rotarod apparatus (UGO BASILE, Comerio, Italy) at a constant speed (12 rpm) over a period of 2 min (Carter et al., 1999 J Neurosci. 19:3248-3257). […] Latency to fall was recorded automatically. […]

[4] = tested on: SCA3 transgenic mice expressing ataxin-3-Q79; assay: SCA3 transgenic mice: rotarod test and NeuN staining of pontine nuclei; conditions: 4-month-old SCA3 transgenic mice
Experimental: (A) SCA3 transgenic mice were given drinking water containing vehicle (0.2% DMSO) or T1-11 (0.1 mg/ml) beginning at 4 weeks-old.
Behavioral test. Balance and coordination functions of mice were determined by performing rotarod test. Mice were placed on the moving drum of a rotarod apparatus (Accelerating Model, Ugo Basile Biological Research Apparatus), which was then accelerated until mouse fell from the drum onto a plate to stop the timer. Latency to fall was measured in four daily trials over the course of 4 days.
Immunohistochemical staining. Wild-type or SCA3 transgenic mice were anesthetized and perfused transcardially with 4% paraformaldehyde in PBS. Brain was equilibrated in Tissue-Tek embedding medium and frozen in liquid nitrogen. Coronal sections (20 μm) prepared by cryostat sectioning were permeabilized in 0.1% Triton X-100, and incubated at 4° C. for 48 hours with diluted anti-NeuN monoclonal antiserum (Chemicon). Subsequently, sections were washed and incubated with biotinylated horse anti-mouse IgG followed by incubation with avidin-biotin-horseradish peroxidase complex. The sections were then washed and developed in a diaminobenzidine solution. NeuN-positive neurons were visualized and counted by a Leica DM2500 microscope equipped with a Retiga-2000R CCD camera (QImaging) and a 3-axis computer-controlled MAC 600 motorized stage (Ludl Electronics) with the aid of StereoInvestigator software (MBF Bioscience). Each analysis included the processing of 15 brain sections per mouse.

PC12 cells = assay: Serum deprivation-induced cell death, MTT assay; assay type: cell-based, Rat; conditions: serum-deprived PC12 cells, 24 h
Experimental: Serum-deprived PC12 cells were treated with or without the indicated reagent(s) for 24 h. Cell viability was expressed as a percentage of the results from MTT assays compared to the mean of a serum-containing control group. Data points represent the mean±SEM (n=3˜6).
Rat PC12 cells purchased from American Type Culture Collection (ATCC; Manassas, Va., USA) were maintained in DMEM supplemented with 10% horse serum and 5% FBS and incubated in a CO2 incubator (5%) at 37° C. LIPOFECTAMINE™ 2000 (Invitrogen) was used as a vehicle to transfer plasmids into cells according to the manufacture's protocol. Plasmids were kindly provided by Dr. Pulst (Department of Neurology, University of Utah, USA). Normally, 5 μg of DNA combined with 5 μl of LIPOFECTAMINE™ 2000 was applied to each well of 6-well plates. The plating number was (1˜1.5)×10^6 cells/well. After transfections for 6 h, cells were treated with reagents for another 24 h. Images were taken with a Zeiss Axiovert 200M inverted fluorescence microscope (Göttingen, Germany).
MTT assay. Survival was assessed by 3-(4,5-dimethylthiazol-2-yl)-2,5-diphenyl tetrazolium bromide (MTT) metabolism assay. […] After discarding the medium, DMSO was applied to the well to dissolve formazan crystals, and the absorbances at 570 and 630 nm in each well were measured on a micro-enzyme-linked immunosorbent assay (ELISA) reader.

TDP-43 transgenic mice = TDP-43 transgenic mice (ALS): rotarod and grip strength; assay type: in vivo
[5] = 3.7, 1.25, 0.5 and 0.1 mg/kg/day, subcutaneous osmotic pump, vs control mice

| Compound | oral absorption relative to T1-11 ([1]; JMF3464 vs T1-11) | bioavailability ([1]; male, mouse, plasma, oral 10 mg/kg vs intravenous 1 mg/kg) [%] | Ki (human A2AR) [µM] | Ki [2] [µM] | effective dose (start) ([3]; i.p.) [mg/kg] | analgesic effect ([3]; i.p., dose-dependent, von Frey mechanical hyperalgesia) | analgesic effect, oral administration ([3]; p.o. 1 mg/kg) | TDP-43 mislocalization (NSC34 cells) | motor coordination assessed by rotarod performance (R6/2 mice; R6/2 mice from 7 weeks old, 0.11 mg/kg/day, subcutaneous osmotic minipump, 6 weeks) | lifespan (R6/2 mice; R6/2 mice, sustained (long term) treatment) | rotarod performance / ataxia ([4]; daily 0.3 mg per day) | pontine neuronal death (NeuN staining) ([4]; daily oral 0.3 mg per day) | inhibition at 10 µM (human A2AR; read-out: inhibition of A2A receptor) [%] | inhibition at 10 µM ([2]; read-out: inhibition of adenosine transporter (ENT1)) [%] | apoptosis of PC12 cells caused by serum withdrawal (PC12 cells) | grip strength (TDP-43 transgenic mice; [5]) | rotarod performance (TDP-43 transgenic mice; [5]) | dose showing the greatest benefit (TDP-43 transgenic mice; rotarod and grip strength) [mg/kg] | pontine neuronal death (NeuN staining) ([4]; daily oral 1 mg per day) | rotarod performance ([4]; daily oral 1 mg per day) |
| --- | --- | --- | --- | --- | --- | --- | --- | --- | --- | --- | --- | --- | --- | --- | --- | --- | --- | --- | --- | --- |
| OC[C@H]1O[C@@H](n2cnc3c(NCc4ccc(Br)s4)ncnc32)[C@H](O)[C@@H]1O [JMF3464, N^6-[(5-bromothien-2-yl)methyl]adenosine] | more than 6 fold | 17.4 | 1.7 | 0.05 | ≥ 0.1 | showed an analgesic effect | showed an analgesic effect | reduced TDP-43 mislocalization; also recorded: normalized TDP-43 mislocalization | counteracted the progressive deterioration in motor coordination | improved | greatly improved the rotarod performance; also recorded: alleviated the ataxia | significantly ameliorated neuronal death in the pontine nuclei; also recorded: alleviated | – | – | – | – | – | – | – | – |
| OC[C@H]1O[C@@H](n2cnc3c(NCc4ccc(Cl)s4)ncnc32)[C@H](O)[C@@H]1O [JMF3818, N^6-[(5-Chlorothien-2-yl)methyl]adenosine] | – | – | – | – | – | – | – | – | – | – | – | – | 54 | 96 | inhibited the apoptosis of PC12 cells caused by serum withdrawal | – | – | – | – | – |
| OC[C@H]1O[C@@H](n2cnc3c(NCCc4c[nH]c5ccccc45)ncnc32)[C@H](O)[C@@H]1O [JMF1907, N^6-[2-(indol-3-yl)ethyl]adenosine] | – | – | 4.39 | 3.47 | – | – | – | – | – | – | – | – | – | – | – | statistical significance was reached at all points for all tested doses; also recorded: performed significantly better | statistical significance was reached at all points for 1.5 & 0.5 mg/kg, from 12-21 wk for 0.1 mg/kg, and 10-12 wk for 3.7 mg/kg; also recorded: performed significantly better | 1.25 | significantly prevented neuronal death in the pontine nuclei; also recorded: significantly alleviated pontine neuronal death | significantly improved rotarod performance |

— US10301348B2, “Compounds for use in prevention and treatment of neurodegenerative diseases and pain” (Academia Sinica, priority 2013, dated 2019)
